Measured values published in ChEMBL document CHEMBL2203210, “SAR and in vivo evaluation of 4-aryl-2-aminoalkylpyrimidines as potent and selective Janus kinase 2 (JAK2) inhibitors” (Bioorg Med Chem Lett, 2012).
In brackets after ≈: the same amount, converted by molar mass.

Legend:
[1] = Kinetic solubility of the compound; format: physicochemical; conditions: read-out: Kinetic_solubility
[2] = molecular target: T1, Tyrosine-protein kinase JAK3 (Homo sapiens, UniProt P52333)
T1 sequence (P52333 whole entry): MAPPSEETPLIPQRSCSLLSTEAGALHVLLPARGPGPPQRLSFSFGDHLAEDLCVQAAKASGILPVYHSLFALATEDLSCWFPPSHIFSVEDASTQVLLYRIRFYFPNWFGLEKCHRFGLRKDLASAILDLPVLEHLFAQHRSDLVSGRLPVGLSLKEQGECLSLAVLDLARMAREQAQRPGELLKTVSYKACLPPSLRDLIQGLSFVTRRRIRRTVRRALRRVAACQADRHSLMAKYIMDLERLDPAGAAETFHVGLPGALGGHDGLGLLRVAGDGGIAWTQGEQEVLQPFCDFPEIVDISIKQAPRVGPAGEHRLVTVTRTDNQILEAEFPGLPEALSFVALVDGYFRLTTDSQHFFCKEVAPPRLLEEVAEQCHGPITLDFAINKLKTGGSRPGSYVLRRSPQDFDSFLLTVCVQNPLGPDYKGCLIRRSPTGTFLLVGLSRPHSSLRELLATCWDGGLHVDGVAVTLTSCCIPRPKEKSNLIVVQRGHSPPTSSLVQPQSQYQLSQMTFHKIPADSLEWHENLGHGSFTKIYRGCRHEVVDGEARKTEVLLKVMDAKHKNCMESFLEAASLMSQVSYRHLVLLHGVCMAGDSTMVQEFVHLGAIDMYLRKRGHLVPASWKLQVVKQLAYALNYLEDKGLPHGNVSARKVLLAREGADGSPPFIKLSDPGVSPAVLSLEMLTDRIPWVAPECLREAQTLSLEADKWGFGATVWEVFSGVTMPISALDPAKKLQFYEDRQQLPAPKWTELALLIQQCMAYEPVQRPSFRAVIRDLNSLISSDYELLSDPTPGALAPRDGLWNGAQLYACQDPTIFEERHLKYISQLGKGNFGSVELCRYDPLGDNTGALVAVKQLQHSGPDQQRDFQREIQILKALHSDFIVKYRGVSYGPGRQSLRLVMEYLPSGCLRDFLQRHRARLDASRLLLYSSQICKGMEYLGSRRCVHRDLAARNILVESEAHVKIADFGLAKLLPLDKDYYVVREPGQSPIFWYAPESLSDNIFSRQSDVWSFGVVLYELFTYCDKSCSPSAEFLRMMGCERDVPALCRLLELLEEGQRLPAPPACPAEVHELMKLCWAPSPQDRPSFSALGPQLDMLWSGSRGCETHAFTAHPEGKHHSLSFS

[3] = Selectivity ratio of IC50 for JAK3 to IC50 for JAK2
[4] = molecular target: T2, Tyrosine-protein kinase JAK2 (Homo sapiens, UniProt O60674)
[5] = molecular target: T2, Tyrosine-protein kinase JAK2; remark: listed apart in the source
Description: Inhibition of JAK2 in HEL 92.1.7 cells assessed as inhibition of STAT1 phosphorylation

[6] = molecular target: T2, Tyrosine-protein kinase JAK2; remark: listed apart in the source
Description: Inhibition of JAK2 in HEL 92.1.7 cells assessed as inhibition of STAT3 phosphorylation

T2 sequence (O60674 whole entry): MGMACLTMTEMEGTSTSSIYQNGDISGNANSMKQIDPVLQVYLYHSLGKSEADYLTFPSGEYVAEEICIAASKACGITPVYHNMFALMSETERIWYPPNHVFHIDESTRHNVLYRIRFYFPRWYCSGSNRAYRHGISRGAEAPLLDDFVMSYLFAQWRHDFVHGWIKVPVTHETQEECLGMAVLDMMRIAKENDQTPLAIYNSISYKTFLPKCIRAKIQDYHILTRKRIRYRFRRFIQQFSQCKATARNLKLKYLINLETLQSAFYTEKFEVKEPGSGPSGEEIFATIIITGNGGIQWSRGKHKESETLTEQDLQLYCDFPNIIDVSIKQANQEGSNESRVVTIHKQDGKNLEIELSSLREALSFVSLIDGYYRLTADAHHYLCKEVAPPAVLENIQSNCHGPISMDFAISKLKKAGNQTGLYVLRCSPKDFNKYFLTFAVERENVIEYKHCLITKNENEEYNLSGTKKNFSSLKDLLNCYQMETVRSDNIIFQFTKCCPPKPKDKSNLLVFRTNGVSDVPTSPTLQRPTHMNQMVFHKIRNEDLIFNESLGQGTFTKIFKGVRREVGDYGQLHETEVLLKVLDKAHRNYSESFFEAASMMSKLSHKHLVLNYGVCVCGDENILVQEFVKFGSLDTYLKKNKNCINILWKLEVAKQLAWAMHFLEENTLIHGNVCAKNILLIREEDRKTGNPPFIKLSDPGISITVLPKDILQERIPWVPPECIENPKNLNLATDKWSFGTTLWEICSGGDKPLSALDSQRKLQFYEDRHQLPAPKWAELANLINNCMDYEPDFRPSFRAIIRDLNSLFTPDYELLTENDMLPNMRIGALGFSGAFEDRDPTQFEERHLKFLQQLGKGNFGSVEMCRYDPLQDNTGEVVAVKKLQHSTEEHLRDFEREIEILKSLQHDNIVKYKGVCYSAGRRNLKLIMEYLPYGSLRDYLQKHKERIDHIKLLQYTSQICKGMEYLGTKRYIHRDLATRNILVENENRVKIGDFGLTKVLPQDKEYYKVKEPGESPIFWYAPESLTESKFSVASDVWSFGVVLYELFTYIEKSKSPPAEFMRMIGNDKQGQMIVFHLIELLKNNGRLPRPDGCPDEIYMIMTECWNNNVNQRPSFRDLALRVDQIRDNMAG

Compound | solubility kinetic [1] | IC50 [2] | Ratio IC50 [3] | IC50 [4] | IC50 [5] | IC50 [6]
CC(=O)Nc1ccc(-c2ccnc(NCCCNC(=O)c3c(Cl)cccc3Cl)n2)cc1 | 6.5 µM (≈ 2.98 µg/mL) | > 5000 nM | > 50 | 104 nM | 8140 nM | –
CC(=O)Nc1ccc(-c2nc(Nc3ccc(N4CCOCC4)cc3)ncc2F)cc1 | – | > 980 nM | – | 4.4 nM | 6490 nM | –
CC(=O)Nc1ccc(-c2ccnc(Nc3cccc(NC(=O)c4c(Cl)cccc4Cl)n3)n2)cc1 | – | > 980 nM | – | 130 nM | > 30000 nM | –
CC(=O)Nc1ccc(-c2nc(Nc3ccc(N4CCOCC4)cc3)ncc2C(F)(F)F)cc1 | – | > 980 nM | – | 39.6 nM | 2700 nM | –
CC(=O)Nc1ccc(-c2cc(Nc3ccc(N4CCOCC4)cc3)ncn2)cc1 | – | > 980 nM | – | > 980 nM | > 30000 nM | –
CC(=O)Nc1ccc(-c2ccnc(Nc3cccc(N4CCCCC4)c3)n2)cc1 | – | > 980 nM | – | 6.5 nM | 956 nM | 1330 nM
CCN1CCC[C@@H]1C(=O)Nc1ccc(-c2ccnc(Nc3ccc(N4CCOCC4)cc3)n2)cc1 | – | – | – | 9.1 nM | 1430 nM | 2170 nM
CC(=O)Nc1ccc(-c2ccnc(Nc3cccc(NC(=O)c4c(Cl)cccc4Cl)c3)n2)cc1 | – | > 980 nM | – | 12.6 nM | 763 nM | 505 nM
CC(=O)Nc1ccc(-c2ccnc(NC3CCCC(NC(=O)c4c(Cl)cccc4Cl)C3)n2)cc1 (configuration not stated) | – | > 980 nM | – | > 980 nM | > 30000 nM | –
CC(=O)Nc1ccc(-c2ccnc(Nc3cccc(NC(=O)c4ccccc4Cl)c3)n2)cc1 | – | > 980 nM | – | 6.9 nM | > 30000 nM | –
CC(=O)Nc1ccc(-c2ccnc(NCC3CN(C(=O)c4c(Cl)cccc4Cl)C3)n2)cc1 | – | 5000 nM | – | 5000 nM | > 30000 nM | –
CC(=O)Nc1ccc(-c2cc(C)nc(Nc3ccc(N4CCOCC4)cc3)n2)cc1 | – | > 980 nM | – | > 980 nM | > 30000 nM | –
CC(=O)Nc1ccc(-c2ccnc(Nc3cccc(NC(=O)c4ccccc4)c3)n2)cc1 | – | > 980 nM | – | – | – | –
CC(=O)Nc1ccc(-c2ccnc(Nc3ccc(N4CCOCC4)cc3)n2)cc1 | – | > 980 nM | > 250 | – | 975 nM | 795 nM
CC(=O)Nc1ccc(-c2ccnc(Nc3cccc(N4CCOCC4)c3)n2)cc1 | – | > 980 nM | – | 4.2 nM | 615 nM | 591 nM

Continued, values first:

solubility kinetic [1] | IC50 [2] | Ratio IC50 [3] | IC50 [4] | IC50 [5] | IC50 [6] | Compound
– | 307 nM | – | 1.7 nM | 328 nM | 452 nM | C[C@@H](N)C(=O)Nc1ccc(-c2ccnc(Nc3ccc(N4CCOCC4)cc3)n2)cc1
– | 61.7 nM | – | 0.9 nM | > 30000 nM | – | O=C1CC[C@H](C(=O)Nc2ccc(-c3ccnc(Nc4ccc(N5CCOCC5)cc4)n3)cc2)N1
– | 298 nM | – | 8.7 nM | 1050 nM | 1510 nM | C[C@H](N)C(=O)Nc1ccc(-c2ccnc(Nc3ccc(N4CCOCC4)cc3)n2)cc1
– | 160 nM | – | 2.7 nM | 622 nM | 1390 nM | N[C@H](CO)C(=O)Nc1ccc(-c2ccnc(Nc3ccc(N4CCOCC4)cc3)n2)cc1
– | 105 nM | – | – | – | – | CC(=O)Nc1ccc(-c2nc(Nc3ccc(N4CCOCC4)cc3)ncc2C)cc1
– | 368 nM | – | 5.7 nM | > 30000 nM | – | O=C(Nc1ccc(-c2ccnc(Nc3ccc(N4CCOCC4)cc3)n2)cc1)[C@H]1CCNC1
234 µM (≈ 71.2 µg/mL) | 1150 nM | – | 12.8 nM | 1000 nM | 1970 nM | CC(=O)Nc1ccc(-c2ccnc(Nc3ccccc3)n2)cc1
– | 484 nM | – | 5.2 nM | 746 nM | 1050 nM | CN1CCC[C@@H]1C(=O)Nc1ccc(-c2ccnc(Nc3ccc(N4CCOCC4)cc3)n2)cc1
